Assay results: ChEMBL document CHEMBL4028839, “Synthesis of octapeptin C4 and biological profiling against NDM-1 and polymyxin-resistant bacteria” (Bioorg Med Chem Lett, 2017)
≈ marks a conversion by molar mass, not a printed value. Bridge positions count the residues as written; N and C are the ends. Square brackets hold non-standard residues; d marks the D form. Peptide text beside a SMILES is read from it. * marks the point of attachment. Decanoyl(3R-OH) = CCCCCCC[C@@H](O)CC(=O)*; dDab = NCC[C@@H](N)C(=O)O; Dab = NCC[C@H](N)C(=O)O

Legend:
[1] = (§1) Cytotoxicity against HK2 cells after 24 hrs by LDH assay; type: cell-based, HK-2; conditions: human, HK-2 cells
[2] = (§2) Cytotoxicity against human RPTEC after 24 hrs by LDH assay; type: cell-based; conditions: RPTEC cells
Escherichia coli = assay: Antimicrobial activity against Escherichia coli ATCC 25922 measured after 24 hrs; type: functional
Klebsiella pneumoniae [3] = assay: Antimicrobial activity against NDM-1 positive Klebsiella pneumoniae BAA-2146 measured after 24 hrs; type: functional
Staphylococcus aureus = assay: Antimicrobial activity against meticillin-susceptible Staphylococcus aureus ATCC 25923 measured after 24 hrs; type: functional
Acinetobacter baumannii = assay: Antimicrobial activity against Acinetobacter baumannii ATCC 19606 measured after 24 hrs; type: functional
Pseudomonas aeruginosa [4] = assay: Antimicrobial activity against Pseudomonas aeruginosa ATCC 27853 measured after 24 hrs; type: functional
Klebsiella pneumoniae [5] = assay: Antimicrobial activity against Klebsiella pneumoniae ATCC 13883 measured after 24 hrs; type: functional
Pseudomonas aeruginosa [6] = assay: Antimicrobial activity against polymyxin-resistant Pseudomonas aeruginosa clinical isolate PA9704 measured after 24 hrs; type: functional
[7] = (§3) Antimicrobial activity against multi-drug resistant Klebsiella quasipneumoniae subsp. similipneumoniae ATCC 700603 measured after 24 hrs; type: functional; conditions: ATCC 700603, 24 h
Pseudomonas aeruginosa [8] = assay: Antimicrobial activity against polymyxin-resistant Pseudomonas aeruginosa clinical isolate FADDI-PA070 measured after 24 hrs; type: functional
HK-2 = assay: as §1; type: cell-based; conditions: human, hk-2, 24 h
RPTEC = assay: as §2; type: cell-based; conditions: rptec, 24 h
[9] = system: Klebsiella quasipneumoniae subsp. Similipneumoniae; assay: as §3; type: functional
[10] = ATCC 19606 = CIP 70.34 = JCM 6841, 24 h

Row | Compound | CC50 at 24 h [1] | CC50 at 24 h [2] | MIC (Escherichia coli; ATCC 25922, 24 h) | MIC (Klebsiella pneumoniae [3]; ATCC BAA-2146, 24 h) | MIC (Staphylococcus aureus; ATCC 25923, 24 h) | MIC (Acinetobacter baumannii; [10]) | MIC (Pseudomonas aeruginosa [4]; ATCC 27853, 24 h) | MIC (Klebsiella pneumoniae [5]; ATCC 13883, 24 h) | MIC (Pseudomonas aeruginosa [6]; isolate PA9704, 24 h) | MIC [7] | MIC (Pseudomonas aeruginosa [8]; isolate FADDI-PA070, 24 h) | also measured
1 | CCCCCCC[C@@H](O)CC(=O)N[C@H](CCN)C(=O)N[C@@H](CCN)C(=O)N[C@@H](CCN)C(=O)N[C@H](Cc1ccccc1)C(=O)N[C@@H](CC(C)C)C(=O)N[C@@H](CCN)C(=O)N[C@@H](CCN)C(=O)N[C@@H](CC(C)C)C(=O)O [listing 1 of 2 here] | 139 µM | 71 µM | – | – | – | – | – | – | – | – | – | –
2 | CCCCCCC[C@@H](O)CC(=O)N[C@H](CCN)C(=O)N[C@@H](CCN)C(=O)N[C@@H](CCN)C(=O)N[C@H](Cc1ccccc1)C(=O)N[C@@H](CC(C)C)C(=O)N[C@@H](CCN)C(=O)N[C@@H](CCN)C(=O)N[C@@H](CC(C)C)C(=O)O [listing 2 of 2 here] | – | – | 16 µg/mL (≈ 15.1 µM) | > 32 µg/mL | 32 µg/mL (≈ 30.1 µM) | > 32 µg/mL | 4 µg/mL (≈ 3.77 µM) | > 32 µg/mL | > 32 µg/mL | 16 µg/mL (≈ 15.1 µM) | 32 µg/mL (≈ 30.1 µM) | –
3 | CCCCCCC[C@@H](O)CC(=O)N[C@H](CCN)C(=O)N[C@H]1CCNC(=O)[C@H](CC(C)C)NC(=O)[C@H](CCN)NC(=O)[C@H](CCN)NC(=O)[C@H](CC(C)C)NC(=O)[C@@H](Cc2ccccc2)NC(=O)[C@H](CCN)NC1=O ({Decanoyl(3R-OH)}-[dDab][Dab][Dab][dF]L[Dab][Dab]L; lactam 2-C) | 31 µM | 39 µM | 4 µg/mL (≈ 3.83 µM) | 8 µg/mL (≈ 7.66 µM) | 16 µg/mL (≈ 15.3 µM) | 4 µg/mL (≈ 3.83 µM) | 2 µg/mL (≈ 1.92 µM) | 8 µg/mL (≈ 7.66 µM) | 2 µg/mL (≈ 1.92 µM) | 8 µg/mL (≈ 7.66 µM) | 2 µg/mL (≈ 1.92 µM) | –
4 | POLYMYXIN B [listing 1 of 2 here] | – | – | – | – | – | – | – | – | – | – | – | CC50 (HK-2): 135 µM; CC50 (RPTEC): > 300 µM
5 | POLYMYXIN B [listing 2 of 2 here] | – | – | – | – | – | – | – | – | – | – | – | MIC (Escherichia coli): 0.25 µg/mL; MIC (Klebsiella pneumoniae [3]; ATCC BAA-2146): 0.25 µg/mL; MIC (Staphylococcus aureus): > 64 µg/mL; MIC (Acinetobacter baumannii; ATCC 19606 = CIP 70.34 = JCM 6841): 0.25 µg/mL; MIC (Pseudomonas aeruginosa [4]): 0.5 µg/mL; MIC (Klebsiella pneumoniae [5]): 0.25 µg/mL; MIC (Pseudomonas aeruginosa [6]): 128 µg/mL; MIC [9]: 0.25 µg/mL; MIC (Pseudomonas aeruginosa [8]): 32 µg/mL
